PubChem BioAssay (NCI)
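Interpolation was linear, between the two tested concentrations surrounding the appropriate level; five concentrations were tested over 48 hours in 96-well plates. TGI: concentration producing complete growth inhibition.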

Columns and labels:
Test in all cases: inhibition of tumour cell growth, NCI panel, 48 h
U251 CNS = system: U251 CNS
SNB-75 CNS = system: SNB-75 CNS
OVCAR-5 ovarian = system: OVCAR-5 ovarian
CAKI-1 renal = system: CAKI-1 renal
NCI-H460 lung = system: NCI-H460 lung
UO-31 renal = system: UO-31 renal
RXF 393 renal = system: RXF 393 renal
NCI-H226 lung = system: NCI-H226 lung
LOX IMVI melanoma = system: LOX IMVI melanoma
IGROV1 ovarian = system: IGROV1 ovarian
HCT-15 colon = system: HCT-15 colon
NCI/ADR-RES ovarian = system: NCI/ADR-RES ovarian
MDA-MB-435 = system: MDA-MB-435
A549 NSCLC = system: A549 NSCLC
HCT-116 colon = system: HCT-116 colon
MCF7 breast = system: MCF7 breast
SF-295 CNS = system: SF-295 CNS
HT29 colon = system: HT29 colon
HS 578T breast = system: HS 578T breast
PC-3 prostate = system: PC-3 prostate
MDA-MB-231 breast = system: MDA-MB-231 breast
UACC-257 melanoma = system: UACC-257 melanoma
COLO 205 colon = system: COLO 205 colon
SW-620 colon = system: SW-620 colon
HOP-92 NSCLC = system: HOP-92 NSCLC
SN12C renal = system: SN12C renal
EKVX NSCLC = system: EKVX NSCLC
KM12 colon = system: KM12 colon
RPMI-8226 leukemia = system: RPMI-8226 leukemia
SF-539 CNS = system: SF-539 CNS
OVCAR-4 ovarian = system: OVCAR-4 ovarian
HOP-62 NSCLC = system: HOP-62 NSCLC
MDA-N = system: MDA-N
BT-549 breast = system: BT-549 breast
T-47D breast = system: T-47D breast
SK-MEL-28 melanoma = system: SK-MEL-28 melanoma
SK-OV-3 ovarian = system: SK-OV-3 ovarian
OVCAR-3 ovarian = system: OVCAR-3 ovarian
786-0 renal = system: 786-0 renal
HCC-2998 colon = system: HCC-2998 colon
OVCAR-8 ovarian = system: OVCAR-8 ovarian
UACC-62 melanoma = system: UACC-62 melanoma
MALME-3M melanoma = system: MALME-3M melanoma
DU-145 prostate = system: DU-145 prostate
M14 melanoma = system: M14 melanoma
NCI-H522 lung = system: NCI-H522 lung
MOLT-4 leukemia = system: MOLT-4 leukemia
SK-MEL-5 melanoma = system: SK-MEL-5 melanoma
HL-60(TB) leukemia = system: HL-60(TB) leukemia
SF-268 CNS = system: SF-268 CNS
CCRF-CEM leukemia = system: CCRF-CEM leukemia
SK-MEL-2 melanoma = system: SK-MEL-2 melanoma
ACHN renal = system: ACHN renal
NCI-H23 lung = system: NCI-H23 lung
TK-10 renal = system: TK-10 renal
SNB-19 CNS = system: SNB-19 CNS
A498 renal = system: A498 renal
SR leukemia = system: SR leukemia
K-562 leukemia = system: K-562 leukemia

For `COc1ccc(/C=C(/C(=O)c2ccc(Cl)cc2)N2C=CC=CC2=C(C#N)C#N)cc1OC`, the TGI (U251 CNS) was 24.4 µM, the TGI (SNB-75 CNS) was 20.3 µM and the TGI (OVCAR-5 ovarian) was 32.6 µM. It also gave a TGI (CAKI-1 renal) of 5.69 µM, a TGI (NCI-H460 lung) of 25.5 µM and a TGI (UO-31 renal) of 3.44 µM. It also gave a TGI (RXF 393 renal) of 4.75 µM, a TGI (NCI-H226 lung) of 38.4 µM and a TGI (LOX IMVI melanoma) of 8.3 µM. For the same compound, the TGI (IGROV1 ovarian) was 14.9 µM, the TGI (HCT-15 colon) was 6.19 µM and the TGI (NCI/ADR-RES ovarian) was 44.9 µM. For the same compound, the TGI (MDA-MB-435) was 19.1 µM, the TGI (A549 NSCLC) was 30.4 µM and the TGI (HCT-116 colon) was 5.41 µM. The TGI (MCF7 breast) was 16.9 µM, the TGI (SF-295 CNS) was greater than 85.3 µM and the TGI (HT29 colon) was 13.1 µM. It also gave a TGI (HS 578T breast) of 26.3 µM, a TGI (PC-3 prostate) of 12.9 µM and a TGI (MDA-MB-231 breast) of 21.6 µM. It also gave a TGI (UACC-257 melanoma) of 17.2 µM, a TGI (COLO 205 colon) of 3.32 µM and a TGI (SW-620 colon) greater than 32.9 µM. It also gave a TGI (HOP-92 NSCLC) of 13.4 µM, a TGI (SN12C renal) of 47.7 µM and a TGI (EKVX NSCLC) of 10.6 µM. It also gave a TGI (KM12 colon) of 42.1 µM, a TGI (RPMI-8226 leukemia) of 8.59 µM and a TGI (SF-539 CNS) of 22.3 µM. The TGI (OVCAR-4 ovarian) was 20.5 µM, the TGI (HOP-62 NSCLC) was 51.1 µM and the TGI (MDA-N) was 20.1 µM. The TGI (BT-549 breast) was 22.5 µM, the TGI (T-47D breast) was 29.4 µM and the TGI (SK-MEL-28 melanoma) was 11.5 µM. The TGI (SK-OV-3 ovarian) was greater than 82.1 µM, the TGI (OVCAR-3 ovarian) was 15.2 µM and the TGI (786-0 renal) was 5.29 µM. It also gave a TGI (HCC-2998 colon) of 4.2 µM, a TGI (OVCAR-8 ovarian) of 16.1 µM and a TGI (UACC-62 melanoma) of 28.2 µM. For the same compound, the TGI (MALME-3M melanoma) was 2.91 µM, the TGI (DU-145 prostate) was 28.5 µM and the TGI (M14 melanoma) was 11.4 µM. The TGI (NCI-H522 lung) was 0.953 µM, the TGI (MOLT-4 leukemia) was 4.64 µM and the TGI (SK-MEL-5 melanoma) was 22.9 µM. It also gave a TGI (HL-60(TB) leukemia) of 7.79 µM, a TGI (SF-268 CNS) of 17.2 µM and a TGI (CCRF-CEM leukemia) of 0.665 µM. It also gave a TGI (SK-MEL-2 melanoma) of 29.7 µM, a TGI (ACHN renal) of 11.9 µM and a TGI (NCI-H23 lung) of 27.5 µM. The TGI (TK-10 renal) was 17.8 µM, the TGI (SNB-19 CNS) was 32.1 µM and the TGI (A498 renal) was 30.5 µM.
`CCC(=O)NC(Nc1cccc(F)c1C)(C(F)(F)F)C(F)(F)F` was tested, and the TGI (U251 CNS) was greater than 100 µM, the TGI (SNB-75 CNS) was greater than 100 µM and the TGI (OVCAR-5 ovarian) was greater than 100 µM. For the same compound, the TGI (CAKI-1 renal) was greater than 100 µM, the TGI (NCI-H460 lung) was greater than 100 µM and the TGI (UO-31 renal) was greater than 100 µM. The TGI (RXF 393 renal) was 80.7 µM, the TGI (NCI-H226 lung) was greater than 100 µM and the TGI (LOX IMVI melanoma) was greater than 100 µM. The TGI (IGROV1 ovarian) was greater than 100 µM, the TGI (HCT-15 colon) was greater than 100 µM and the TGI (NCI/ADR-RES ovarian) was greater than 100 µM. It also gave a TGI (MDA-MB-435) greater than 100 µM, a TGI (A549 NSCLC) greater than 100 µM and a TGI (HCT-116 colon) greater than 100 µM. The TGI (MCF7 breast) was greater than 100 µM, the TGI (SF-295 CNS) was greater than 100 µM and the TGI (HT29 colon) was greater than 100 µM. For the same compound, the TGI (HS 578T breast) was greater than 100 µM, the TGI (PC-3 prostate) was greater than 100 µM and the TGI (MDA-MB-231 breast) was greater than 100 µM. For the same compound, the TGI (SR leukemia) was greater than 100 µM, the TGI (UACC-257 melanoma) was greater than 100 µM and the TGI (COLO 205 colon) was greater than 100 µM. For the same compound, the TGI (SW-620 colon) was greater than 100 µM, the TGI (HOP-92 NSCLC) was greater than 100 µM and the TGI (EKVX NSCLC) was greater than 100 µM. The TGI (KM12 colon) was greater than 100 µM, the TGI (RPMI-8226 leukemia) was greater than 100 µM and the TGI (SF-539 CNS) was greater than 100 µM. For the same compound, the TGI (HOP-62 NSCLC) was greater than 100 µM, the TGI (MDA-N) was greater than 100 µM and the TGI (BT-549 breast) was greater than 100 µM. It also gave a TGI (T-47D breast) greater than 100 µM, a TGI (SK-MEL-28 melanoma) greater than 100 µM and a TGI (SK-OV-3 ovarian) greater than 100 µM. The TGI (OVCAR-3 ovarian) was greater than 100 µM, the TGI (786-0 renal) was greater than 100 µM and the TGI (K-562 leukemia) was greater than 100 µM. The TGI (HCC-2998 colon) was greater than 100 µM, the TGI (OVCAR-8 ovarian) was greater than 100 µM and the TGI (UACC-62 melanoma) was greater than 100 µM. It also gave a TGI (MALME-3M melanoma) greater than 100 µM, a TGI (DU-145 prostate) greater than 100 µM and a TGI (M14 melanoma) greater than 100 µM. The TGI (NCI-H522 lung) was greater than 100 µM, the TGI (MOLT-4 leukemia) was greater than 100 µM and the TGI (SK-MEL-5 melanoma) was greater than 100 µM. The TGI (HL-60(TB) leukemia) was greater than 100 µM, the TGI (SF-268 CNS) was greater than 100 µM and the TGI (CCRF-CEM leukemia) was greater than 100 µM. It also gave a TGI (SK-MEL-2 melanoma) greater than 100 µM, a TGI (ACHN renal) greater than 100 µM and a TGI (NCI-H23 lung) greater than 100 µM. For the same compound, the TGI (TK-10 renal) was greater than 100 µM, the TGI (SNB-19 CNS) was greater than 100 µM and the TGI (A498 renal) was greater than 100 µM.
`CC(C)(C)C(=O)OCC1CCC[N+]2(C)CCCCC12` (stereo unspecified) gave a TGI (U251 CNS) greater than 100 µM, a TGI (SNB-75 CNS) greater than 100 µM and a TGI (OVCAR-5 ovarian) greater than 100 µM. The TGI (CAKI-1 renal) was greater than 100 µM, the TGI (NCI-H460 lung) was greater than 100 µM and the TGI (UO-31 renal) was greater than 100 µM. The TGI (RXF 393 renal) was greater than 100 µM, the TGI (NCI-H226 lung) was greater than 100 µM and the TGI (LOX IMVI melanoma) was greater than 100 µM. It also gave a TGI (IGROV1 ovarian) greater than 100 µM, a TGI (HCT-15 colon) greater than 100 µM and a TGI (NCI/ADR-RES ovarian) greater than 100 µM. It also gave a TGI (MDA-MB-435) greater than 100 µM, a TGI (A549 NSCLC) greater than 100 µM and a TGI (HCT-116 colon) greater than 100 µM. The TGI (MCF7 breast) was greater than 100 µM, the TGI (SF-295 CNS) was greater than 100 µM and the TGI (HT29 colon) was greater than 100 µM. It also gave a TGI (HS 578T breast) greater than 100 µM, a TGI (PC-3 prostate) greater than 100 µM and a TGI (MDA-MB-231 breast) greater than 100 µM. It also gave a TGI (SR leukemia) greater than 100 µM, a TGI (UACC-257 melanoma) greater than 100 µM and a TGI (COLO 205 colon) greater than 100 µM. The TGI (SW-620 colon) was greater than 100 µM, the TGI (HOP-92 NSCLC) was greater than 100 µM and the TGI (SN12C renal) was greater than 100 µM. For the same compound, the TGI (EKVX NSCLC) was greater than 100 µM, the TGI (KM12 colon) was greater than 100 µM and the TGI (RPMI-8226 leukemia) was greater than 100 µM. For the same compound, the TGI (SF-539 CNS) was greater than 100 µM, the TGI (OVCAR-4 ovarian) was greater than 100 µM and the TGI (HOP-62 NSCLC) was greater than 100 µM. The TGI (MDA-N) was greater than 100 µM, the TGI (BT-549 breast) was greater than 100 µM and the TGI (T-47D breast) was greater than 100 µM. The TGI (SK-MEL-28 melanoma) was greater than 100 µM, the TGI (SK-OV-3 ovarian) was greater than 100 µM and the TGI (OVCAR-3 ovarian) was greater than 100 µM. For the same compound, the TGI (786-0 renal) was greater than 100 µM, the TGI (K-562 leukemia) was greater than 100 µM and the TGI (HCC-2998 colon) was greater than 100 µM. For the same compound, the TGI (OVCAR-8 ovarian) was greater than 100 µM, the TGI (UACC-62 melanoma) was greater than 100 µM and the TGI (MALME-3M melanoma) was greater than 100 µM. It also gave a TGI (DU-145 prostate) greater than 100 µM, a TGI (M14 melanoma) greater than 100 µM and a TGI (MOLT-4 leukemia) greater than 100 µM. The TGI (SK-MEL-5 melanoma) was greater than 100 µM, the TGI (SF-268 CNS) was greater than 100 µM and the TGI (CCRF-CEM leukemia) was greater than 100 µM. It also gave a TGI (SK-MEL-2 melanoma) greater than 100 µM, a TGI (ACHN renal) greater than 100 µM and a TGI (NCI-H23 lung) greater than 100 µM. For the same compound, the TGI (TK-10 renal) was greater than 100 µM, the TGI (SNB-19 CNS) was greater than 100 µM and the TGI (A498 renal) was greater than 100 µM.
